# Values joined by “and” are separate entries in the source; they are usually repeats but may differ in a detail not shown here. Equal entries are not always repeated. Where two headings read alike, the source gives them in different places.
# Key:
# [1] = target: T1, PPM1DΔflap (Homo sapiens, UniProt O15297, DEL219-231/DEL235-284/E287S/S285N); experiment: Surface plasmon resonance (SPR); format: binding
# T1 construct: PPM1D1–218-GGSNGS-288–420 (PPM1D∆flap); His(6)-SUMO (N, cleaved yes); made in house; host or cells: E. coli BL21 (DE3)
# T1 sequence (O15297 with tags, fused parts or gaps DEL219-231/DEL235-284/S285N/E287S): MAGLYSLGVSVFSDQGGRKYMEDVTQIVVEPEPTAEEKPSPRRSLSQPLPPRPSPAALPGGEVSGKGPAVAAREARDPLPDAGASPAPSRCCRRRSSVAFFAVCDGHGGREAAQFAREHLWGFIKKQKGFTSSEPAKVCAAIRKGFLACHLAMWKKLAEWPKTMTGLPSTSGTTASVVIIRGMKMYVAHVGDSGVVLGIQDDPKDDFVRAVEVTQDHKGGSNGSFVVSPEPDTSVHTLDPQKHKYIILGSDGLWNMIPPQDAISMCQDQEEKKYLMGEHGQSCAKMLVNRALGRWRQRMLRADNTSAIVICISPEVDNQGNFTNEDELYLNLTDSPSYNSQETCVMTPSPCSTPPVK
# Method: (§1) SPR was carried out on the Biacore S200 (GE Healthcare) using Series S sensor chip NTA (GE BR-1005-32). The preparation of the chip surface was conducted according to the manufacturer’s indications. The running buffer contained 50 mM Tris (pH 7.5), 50 mM NaCl, 1 mM MgCl2, 0.5 mM TCEP, 0.005% (v/v) P20 surfactant, and 2% DMSO. PPM1D1–420 and PPM1D∆Flap were run under single-cycle mode due to the slow-off-rate kinetics. The two proteins were immobilized on the chip surface in flow cells 2 and 3 with a signal of ~1500–2000 RU at a rate of 5 μL/min while flow cell 1 was left blank as a reference. The running buffer was injected three times followed by the GSK2830371 analyte in solution. Injections were carried out at a flow rate of 50 μL/min with the analyte in a concentration series of 5-point, 3-fold ending at 400 nM top dose. The association and dissociation phases were monitored for 90 s and 600 s, respectively. Collected data were evaluated using the Biacore S200 Evaluation Software under 1:1 binding mode. PPM1D∆Hinge was run under multi-cycle mode due to its fast-on/fast-off kinetics. The protein was immobilized to give a signal of ~ 3000 RU. GSK2830371 analyte in solution was injected at a flow rate of 90 μL/min in a 10-pt, 2-fold concentration series ending at 15 μM top dose. The association and dissociation phases were monitored for 45 s and 150 s, respectively. Since GSK2830371 had issues with solubility/aggregation at high concentrations that caused artifacts in sensorgrams, only steady-state analysis was performed to extract Kd.
# [2] = target: T2, PPM1D1–420 (Homo sapiens, UniProt O15297); experiment: Surface plasmon resonance (SPR); format: binding; details: for Kd: read-out: KD
# T2 construct: PPM1D1–420 was PCR-amplified from the synthesized gene with BsaI sites; His(6)-SUMO (N, cleaved yes); made in house; host or cells: E. coli BL21 (DE3)
# T2 sequence (O15297 1-420): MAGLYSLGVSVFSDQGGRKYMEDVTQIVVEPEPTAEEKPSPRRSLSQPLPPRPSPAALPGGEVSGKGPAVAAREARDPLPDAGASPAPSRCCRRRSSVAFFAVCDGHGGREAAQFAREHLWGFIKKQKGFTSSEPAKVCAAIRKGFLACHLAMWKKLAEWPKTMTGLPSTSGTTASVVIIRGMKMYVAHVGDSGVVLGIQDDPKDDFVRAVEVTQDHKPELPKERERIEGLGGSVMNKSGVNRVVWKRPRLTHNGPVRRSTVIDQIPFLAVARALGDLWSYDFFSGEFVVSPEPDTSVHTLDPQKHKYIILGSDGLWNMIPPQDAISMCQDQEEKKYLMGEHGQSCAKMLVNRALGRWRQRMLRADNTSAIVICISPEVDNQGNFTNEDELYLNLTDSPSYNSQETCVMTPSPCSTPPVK
# Method: as §1
# [3] = target: T3, PPM1DΔhinge (Homo sapiens, UniProt O15297, DEL155-163/G166S/M164G/T165G); experiment: FDP (fluorescein diphosphate) enzymatic assay; format: biochemical; details: for FDP Assay, signal relative to 0 nM GSK (=100): PPM1DΔHinge, individual runs, listed as GSK
# T3 construct: PPM1D1–154-GGS-167–420 (PPM1D∆hinge); His(6)-SUMO (N, cleaved yes); made in house; host or cells: E. coli BL21 (DE3)
# T3 sequence (O15297 with tags, fused parts or gaps DEL155-163/M164G/T165G/G166S): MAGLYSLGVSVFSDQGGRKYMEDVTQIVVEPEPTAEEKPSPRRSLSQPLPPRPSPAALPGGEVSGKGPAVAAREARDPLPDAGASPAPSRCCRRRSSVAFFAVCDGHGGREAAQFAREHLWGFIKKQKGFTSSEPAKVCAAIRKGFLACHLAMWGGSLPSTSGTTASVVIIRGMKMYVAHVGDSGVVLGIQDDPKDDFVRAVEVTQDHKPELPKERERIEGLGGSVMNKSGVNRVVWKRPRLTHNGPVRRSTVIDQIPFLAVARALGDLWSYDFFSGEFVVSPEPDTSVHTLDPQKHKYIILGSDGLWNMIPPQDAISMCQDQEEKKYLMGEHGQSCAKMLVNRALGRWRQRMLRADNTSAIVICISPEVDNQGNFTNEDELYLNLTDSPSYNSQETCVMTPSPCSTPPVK
# Method: The FDP assay was adapted from reported protocol with minor modifications. Fluorescein diphosphate tetra-ammonium salt (CAS 217305-49-2) was purchased from AAT Bioquest (Cat No.11600). The assay was carried out on a 384-well plate (Corning Cat No.3575) with assay buffer containing 50 mM Tris (pH 7.5), 50 mM NaCl, 30 mM MgCl2, 0.01% tween 20, and 2% DMSO. Reactions were initiated with the addition of FDP to a solution containing wild-type PPM1D or one of its variants, to a final concentration of 5 nM for PPM1D and 100 μM for FDP (or as indicated in Kcat/KM measurements). A fluorescent signal was detected on a Spectramax microplate reader (485/530 nm) for the next 15 min at room temperature with an interval for data collection of 45 s. For the IC50 measurement, the compound was pre-incubated with PPM1D for 1 h before addition of the substrate.
compound,measurement,setting,value
Cc1ncc(Cl)cc1NCc1ccc(C(=O)N[C@@H](CC2CCCC2)C(=O)NC2CC2)s1 [GSK2830371],Kd,"[1]; PPM1DΔflap, Fig. 6A",1 nM
same,koff,[1]; read-out: koff (SPR),0.0045 s⁻¹
same,kon,[1]; read-out: kon (SPR),5e+06 M⁻¹ s⁻¹
same,koff,"[2]; Fig 3D, Average of 3 trials",0.00024 s⁻¹
same,kon,"[2]; Fig 3D, Average of 3 trials",433000 M⁻¹ s⁻¹
same,Kd,"[2]; Fig 3D, Average of 3 trials",1.2 nM
same,koff,"[2]; Fig 3D, individual trials",0.00011 s⁻¹ and 0.00028 s⁻¹ and 0.00033 s⁻¹
same,kon,"[2]; Fig 3D, individual trials",595000 M⁻¹ s⁻¹ and 343000 M⁻¹ s⁻¹ and 362000 M⁻¹ s⁻¹
same,Kd,"[2]; Fig 3D, individual trials",0.8 nM and 1 nM
same,kon,"[2]; read-out: kon (SPR), PPM1D1–420, Fig. 3D",430000 ± 100000 M⁻¹ s⁻¹
same,increase of IC50 in FDP assay upon hinge deletion,[3]; PPM1DΔhinge versus PPM1D1–420,100 fold
same,"FDP Assay, signal relative to 0 nM GSK (=100)",[3]; [GSK] 9.76562 nM,99.774 and 81.7509
same,"FDP Assay, signal relative to 0 nM GSK (=100)",[3]; [GSK] 19.5312 nM,74.1093 and 82.0598
same,"FDP Assay, signal relative to 0 nM GSK (=100)",[3]; [GSK] 39.0625 nM,92.7672 and 94.3849
same,"FDP Assay, signal relative to 0 nM GSK (=100)",[3]; [GSK] 78.125 nM,88.4223 and 95.7187
same,"FDP Assay, signal relative to 0 nM GSK (=100)",[3]; [GSK] 156.25 nM,86.3292 and 93.2128
same,"FDP Assay, signal relative to 0 nM GSK (=100)",[3]; [GSK] 312.5 nM,78.7193 and 77.5806
same,"FDP Assay, signal relative to 0 nM GSK (=100)",[3]; [GSK] 625 nM,74.7657 and 65.5885
same,"FDP Assay, signal relative to 0 nM GSK (=100)",[3]; [GSK] 1250 nM,60.0936 and 55.4697
same,"FDP Assay, signal relative to 0 nM GSK (=100)",[3]; [GSK] 2500 nM,47.8958 and 40.0931
same,"FDP Assay, signal relative to 0 nM GSK (=100)",[3]; [GSK] 5000 nM,6.587 and 19.2353
same,"FDP Assay, signal relative to 0 nM GSK (=100)",[3]; [GSK] 10000 nM,0.167 and 0.2855
